Test results: US12565517B2, “Cyclic peptide having CTLA-4 inhibitory activity and use thereof” (GeneFrontier Corporation, priority 2019, dated 2026)
pEC50, pIC50, pKd: −log10 of the molar value. Bridges are numbered along the chain shown (N, C = ends). Where no end group is shown, it is not given here.

Tests used:
[1] = biological target: T1, binding of CTLA-4 to CD80 (Homo sapiens, UniProt P16410); assay: CTLA4:B7-1[Biotinylated] Inhibitor Screening Assay Kit (IC50 measurement); assay type: biochemical
T1 construct: purchased BPS Biosciences
T1 sequence (P16410 37-162 limits assumed): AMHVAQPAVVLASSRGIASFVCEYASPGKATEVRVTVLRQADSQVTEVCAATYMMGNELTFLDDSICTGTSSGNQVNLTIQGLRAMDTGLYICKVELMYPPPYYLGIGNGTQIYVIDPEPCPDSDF
Excerpt: IC50 can be determined by using, for example, competitive ELISA, surface plasmon resonance (BIAcore (trademark)) analysis or the like. IC50 value for the cyclic peptide of the present invention with respect to its inhibition of binding between human CTLA-4 and human CD80 is preferably measured by CTLA4:B7-1 [Biotinylated] Inhibitor Screening Assay Kit (BPS Bioscience) according to the Example below.
Among the clones obtained in the Affinity Maturation selection experiment, clone #19 ([…]) (SEQ ID NO: 22), which has high affinity to CTLA-4 in EC50 measurement, was measured for its activity to inhibit binding of CTLA-4 to CD80. The measurement of inhibitory activity was performed using the CTLA4:B7-1[Biotinylated] Inhibitor Screening Assay Kit (BPS Biosciences). The experiment was performed according to the standard protocol attached to the kit.
In addition, peptides with glycine added to the N-terminus (Gly-clone #19: […] (SEQ ID NO: 26)/Gly-H12SSI-Ctla4-3-02: […] (SEQ ID NO: 25)) were chemically synthesized for the measurement of inhibitory activity. Inhibitory activity was measured using the CTLA4:B7-1 [Biotinylated] Inhibitor Screening Assay Kit (BPS Biosciences) as described above.

CTLA-4 [2] = biological target: T2, CTLA-4 (Homo sapiens, UniProt P16410); assay: Affinity measurement of CTLA-4 binding clones after Affinity Maturation (EC50 by ELISA, Table 6)
T2 sequence (P16410 36-223): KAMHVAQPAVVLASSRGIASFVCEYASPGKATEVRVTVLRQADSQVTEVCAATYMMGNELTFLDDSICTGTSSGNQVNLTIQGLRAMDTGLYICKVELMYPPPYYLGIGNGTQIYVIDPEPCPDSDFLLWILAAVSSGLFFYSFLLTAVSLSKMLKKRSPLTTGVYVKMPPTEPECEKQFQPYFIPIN
Experimental: For each of the CTLA-4 binding clones obtained by Affinity Maturation, purified N-terminal MBP fusion protein solution (400 μg/mL) was prepared and samples serially 2-fold diluted with PBS were prepared. CTLA-4 was immobilized overnight at 4° C. in 384-well plates at 100 ng/20 μL per well, and each well was washed twice with 100 μL/well of TBST, added with 100 μL/well of 5% skim milk solution (TBST) for blocking for 1 hour at room temperature, and washed twice with 100 μL/well of TBST to obtain antigen-immobilized plates. 20 μL/well of serially-diluted N-terminal MBP fusion protein solution was added to the antigen-immobilized plates and gently stirred at room temperature using a plate mixer. After 1 hour, the plates were washed 5 times with 100 μL/well of TBST, 20 μL/well of anti-FLAG M2-HRP conjugate (1:2000 dilution, Sigma) was added and gently stirred on a plate mixer for 1 hour at room temperature. Further, the plates were washed 5 times with 100 μL/well of TBST, and binding of N-terminal MBP fusion proteins to the antigen was detected by 20 μL/well of chromogenic substrate (0.4 mg/mL 3,3′,5,5′-Tetramethyl-benzidine, 0.01% hydrogen peroxide). After 15 minutes of reaction at room temperature, the reaction was stopped with 20 μL/well of 2N HCl, and absorbance at 450 nm was measured using a plate reader (infinite F200: TECAN). The graph was plotted with the vertical axis as the absorbance of ELISA and the horizontal axis as the concentration of N-terminal MBP fusion protein of the CTLA4-binding clones (FIG. 5), and the EC50 was calculated from the obtained binding curve (Table 6).

CTLA-4 [3] = biological target: T3, CTLA-4 (Homo sapiens, UniProt P16410); assay: Evaluation of binding after Affinity Maturation selection by ELISA (S/N ratio, Table 5); conditions: for ELISA MBP-fusion Orencia (absorbance at 450 nm): MBP-fused cyclic peptide, Orencia wells; for ELISA MBP-fusion S/N(SA): ratio of Orencia signal to SA signal, binding = S/N not less than 2
T3 construct: IgG1 Fc (own knowledge: Orencia = abatacept, CTLA4-Ig)
Experimental: The basic operation of ribosome display was performed in the same manner as described above. Detailed experimental conditions for Affinity Maturation are indicated below. 2 μL of Nanolink streptavidin magnetic beads (SoluLink) were used as magnetic beads to immobilize the antigen, and 1 mL of CTLA-4 protein solution (1 μM) was used as a wash solution. The amount of biotinylated CTLA-4 immobilized on the magnetic beads was 10 pmol in the 1st round, 2 pmol in the 2nd round, and 1 pmol in the 3rd round, respectively. The washing period was 2 hours for the 1st round, 19 hours for the 2nd round, and 67 hours for the 3rd round. The number of wash cycle was one time (2 hours) in the 1st round, two times (about every 10 hours) in the […], and six times (about every 10 hours) in the 3rd round. After each round of RT-PCR, Error-Prone PCR was performed in the same manner as described above.
(§1) After each round of Affinity Maturation, the cyclic peptide genes were recovered and subcloned into pET-Mal vector (FIG. 2) in the same manner as described above to perform base sequence analysis. For the 94 single colonies analyzed for sequence, E. coli transformants were inoculated into 100 μL of 2×YT medium containing ampicillin (final concentration 50 μg/mL), incubated at 37° C. for 3-5 hours (OD600=0.5-0.8), then added with IPTG (final concentration 0.5 mM) and incubated at 25° C. overnight. 10 μL of E. coli cultured medium was added with 90 μL of PBS and 40 μL of lysis reagent (20 μL BugBuster Protein Extraction Reagent (Novagen), 20 μL Lysozyme solution 2.5 mg/mL) to lyse E. coli cells for 1 hour at room temperature. The cell lysate was added with 40 μL of 12.5% skim milk solution (TBST) and blocked for 1 hour at room temperature. In parallel, antigen protein was immobilized overnight at 4° C. in 384-well plates at 100 ng/20 μL per well, and each well was washed twice with 100 μL/well of TBST, added with 100 μL/well of 5% skim milk solution (TBST) for blocking for 1 hour at room temperature, and washed twice with 100 μL/well of TBST to obtain antigen-immobilized plates. 20 μL/well of blocking-treated E. coli extract was added to the antigen-immobilized plates and gently stirred at room temperature using a plate mixer. After 1 hour, the plates were washed 5 times with 100 μL/well of TBST, 20 μL/well of anti-FLAG M2-HRP conjugate (1:2000 dilution, Sigma) was added and gently stirred on a plate mixer for 1 hour at room temperature. The plates were washed 5 times with 100 μL/well of TBST, and binding of cyclic peptides to the antigen was detected by 20 μL/well of chromogenic substrate (0.4 mg/mL 3,3′,5,5′-Tetramethyl-benzidine, 0.01% hydrogen peroxide). After 15 minutes of reaction at room temperature, the reaction was stopped with 20 μL/well of 2N HCl, and absorbance at 450 nm was measured using a plate reader (infinite F200: TECAN) (Table 5).
T3 sequence (P16410 with tags, fused parts or gaps limits assumed): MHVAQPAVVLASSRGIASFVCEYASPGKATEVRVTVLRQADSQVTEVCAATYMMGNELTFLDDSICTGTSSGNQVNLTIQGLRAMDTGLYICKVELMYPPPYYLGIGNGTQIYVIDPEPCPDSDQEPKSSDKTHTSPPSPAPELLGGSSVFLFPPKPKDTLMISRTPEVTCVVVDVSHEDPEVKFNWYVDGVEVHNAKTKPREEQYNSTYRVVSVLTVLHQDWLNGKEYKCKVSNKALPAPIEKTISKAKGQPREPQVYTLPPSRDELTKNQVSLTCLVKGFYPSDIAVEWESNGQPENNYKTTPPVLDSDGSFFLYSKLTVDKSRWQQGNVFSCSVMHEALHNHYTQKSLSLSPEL

CTLA-4 [4] = biological target: T2, CTLA-4; assay: Affinity measurement of synthetic biotinylated peptides by BLItz system (peptide on SA sensor chip); assay type: binding; conditions: synthetic Biotin-PEG4-Lys peptide immobilized, BLItz
Experimental: Affinity for CTLA-4 was measured using the BLItz system (forte Bio). All operations were performed according to the instruction manual of the BLItz system. The biotinylated peptides were immobilized on the SA sensor chip via streptavidin.

SA = SA (Streptomyces avidinii, UniProt P22629); assay: ELISA background signal of MBP-fused cyclic peptides on SA wells (Table 5); assay type: binding; conditions: MBP-fused cyclic peptide
Sequence of SA (P22629 25-183): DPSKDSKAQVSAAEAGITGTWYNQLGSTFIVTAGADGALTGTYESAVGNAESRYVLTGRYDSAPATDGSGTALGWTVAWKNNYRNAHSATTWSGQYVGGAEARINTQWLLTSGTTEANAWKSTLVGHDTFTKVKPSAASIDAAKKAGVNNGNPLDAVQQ
Experimental: as §1
An Error-Prone Library was prepared based on H12SSI-Ctla4-3-02, and Affinity Maturation selection experiments were performed. […]

[5] = biological target: T4, CTLA-4-Fc (Recombinant Human CTLA4-Fc chimera) versus Human Fc (Homo sapiens, UniProt P16410); assay: Ribosome display pull down assay of enriched clones; assay type: binding; conditions: CTLA-4 Fc versus Human Fc
T4 construct: purchased R&D systems
T4 sequence (P16410 with tags, fused parts or gaps limits assumed): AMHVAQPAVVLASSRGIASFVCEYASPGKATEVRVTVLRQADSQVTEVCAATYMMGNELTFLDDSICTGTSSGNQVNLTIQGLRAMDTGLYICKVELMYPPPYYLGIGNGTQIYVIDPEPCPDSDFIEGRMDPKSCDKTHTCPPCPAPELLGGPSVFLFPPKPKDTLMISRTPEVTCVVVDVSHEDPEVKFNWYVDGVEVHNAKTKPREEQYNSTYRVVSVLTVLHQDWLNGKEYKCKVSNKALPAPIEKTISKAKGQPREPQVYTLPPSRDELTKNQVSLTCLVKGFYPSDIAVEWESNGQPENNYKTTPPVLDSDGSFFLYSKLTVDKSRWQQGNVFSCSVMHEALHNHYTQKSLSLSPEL
Experimental: (§2) CTLA-4 protein (Recombinant Human CTLA4-Fc chimera: R&D systems) was biotinylated according to the standard protocol for EZ-Link NHS-PEO12-Biotin (PIERCE). Biotinylation of CTLA-4 protein was confirmed mobility shift of the band in SDS-PAGE. The concentration of biotinylated CTLA-4 protein was measured by using BCA Protein Assay Kit (PIERCE)
Dynabeads MyOne Streptavidin T1 magnetic beads (100 μL slurry, Invitrogen) pre-blocked overnight with 5% SuperBlock at 4° C. was trapped with MagneSphere Magnetic Separation Stand (Promega) and washed twice with 500 μL of wash buffer solution. 100 pmol of biotinylated antigen protein was added and immobilized on the magnetic beads at 4° C. After 60 min, the magnetic beads were trapped with MagneSphere Magnetic Separation Stand (Promega) and washed 3 times with 500 μL of wash buffer solution. The recovered magnetic beads were added with post-translation reaction solution containing ribosome display complexes (peptide-ribosome-mRNA complexes) and stirred with rotation at 4° C. for 1 hr. A supernatant was discarded by MagneSphere Magnetic Separation Stand (Promega), and the recover magnetic beads were added with 1 mL of wash buffer solution and stirred with rotation at 4° C. for 5 min. […] A part of purified mRNA was reacted with RNA-direct SYBR Green Realtime PCR Master Mix (TOYOBO) and quantified by using Light Cycler 480 (Roche).

[6] = biological target: T5, CTLA-4 protein (Recombinant Human CTLA4-Fc chimera) (Homo sapiens, UniProt P16410); assay: Affinity measurement of MBP fusion clone by BLItz system (biotinylated CTLA-4 on SA sensor chip); assay type: binding
T5 construct: purchased R&D systems
Experimental: as §2
E. coli transformants were inoculated into 200 mL of 2×YT medium containing ampicillin (final concentration 50 μg/mL), incubated at 37° C. for 3-5 hours (OD600=0.5-0.8), and then added with IPTG (final concentration 0.5 mM) and incubated at 25° C. overnight. The grown E. coli cells were collected by centrifugation, resuspended in 60 mL of lysis buffer (20 mM Tris HCl pH 7.5, 500 mM NaCl), and disrupted by a sonicator (Bioruptor UCD-250). The disrupted cell suspension was centrifuged, the supernatant was collected, filtered through a 0.22 μm filter, and subjected to affinity purification by MBPTrap (GE Healthcare). The purified protein solution was subjected to a buffer exchange into PBS by a dialysis membrane. Purity was confirmed by SDS-PAGE and protein concentration was determined using the BCA Protein Assay Kit (PIERCE).
The affinity of the purified CTLA-4 binding clone (H12SSI-Ctla4-3-02) to CTLA-4 was measured using BLItz system (forte Bio). All operations were performed according to the instruction manual of the BLItz system. The biotinylated CTLA-4 protein was immobilized on the SA sensor chip via streptavidin.

CTLA-4 [7] = biological target: T2, CTLA-4; assay: Alanine scanning of clone #10, binding evaluated by ELISA; conditions: mutants of clone #10
Experimental: After each round of Affinity Maturation, the cyclic peptide genes were recovered and subcloned into pET-Mal vector (FIG. 2) in the same manner as described above to perform base sequence analysis. For the 94 single colonies analyzed for sequence, E. coli transformants were inoculated into 100 μL of 2×YT medium containing ampicillin (final concentration 50 μg/mL), incubated at 37° C. for 3-5 hours (OD600=0.5-0.8), then added with IPTG (final concentration 0.5 mM) and incubated at 25° C. overnight. […] The plates were washed 5 times with 100 μL/well of TBST, and binding of cyclic peptides to the antigen was detected by 20 μL/well of chromogenic substrate (0.4 mg/mL 3,3′,5,5′-Tetramethyl-benzidine, 0.01% hydrogen peroxide). After 15 minutes of reaction at room temperature, the reaction was stopped with 20 μL/well of 2N HCl, and absorbance at 450 nm was measured using a plate reader (infinite F200: TECAN) (Table 5).
Using the CTLA-4 binding clone #10 ([…]) (SEQ ID NO: 27), which had high affinity, as the original clone, a series of oligo DNAs encoding mutants in which any one amino acid residue except cysteine was sequentially replaced with alanine were synthesized and each oligo DNA was subcloned into pET-Mal vector (FIG. 2), and the binding activity of the alanine substitution mutants to CTLA-4 was evaluated by ELISA as described above.

| Substance | pIC50 ([1]; MBP fusion protein) | pIC50 ([1]; synthesized peptide with N-terminal glycine) | CTLA-4 affinity improved over the original clone (CTLA-4 [2]; EC50 by ELISA, MBP fusion cyclic peptides) | pEC50 (CTLA-4 [2]; N-terminal MBP fusion protein of the CTLA-4 binding clone, EC50 calculated from ELISA binding curve) | ELISA MBP-fusion Orencia (absorbance at 450 nm) (CTLA-4 [3]) | ELISA MBP-fusion S/N(SA) (CTLA-4 [3]) | ka (CTLA-4 [4]) | kd (CTLA-4 [4]) | pKd (CTLA-4 [4]; unit inferred) | ELISA MBP-fusion SA (absorbance at 450 nm) (SA) | binding specificity in ribosome display pull down assay [5] | pKd [6] | ka [6] | kd [6] | binding activity of alanine substitution mutant to CTLA-4 (CTLA-4 [7]) |
| --- | --- | --- | --- | --- | --- | --- | --- | --- | --- | --- | --- | --- | --- | --- | --- |
| CMHPFLPIVSHHFCER [#19] | 5.87 | 4.94 | about 50 fold | 7.12 | 1.0658 | 18.0 | 208000 M⁻¹ s⁻¹ | 0.0128 s⁻¹ | 7.21 | 0.0591 |  |  |  |  |  |
| CMHPFLLVVSHHFC (disulfide 1-14 (inferred); not fully specified (N-terminus)) [H12SSI-Ctla4-3-02] |  |  |  |  | 0.2278 | 4.3 |  |  |  | 0.0536 | bound specifically to CTLA-4 | 5.41 | 3180 M⁻¹ s⁻¹ | 0.0123 s⁻¹ |  |
| I7A mutant: alanine substitution mutant of clone #10 with isoleucine at position 7 replaced (CLHPFLPAVSHHFCGR; not fully specified (bridges); cysteine pairing not given here; also: MBP fusion) |  |  |  |  |  |  |  |  |  |  |  |  |  |  | weak binding activity |
